How the values were obtained:
[1] = system: estradiol and total testosterone; conditions: men treated, Taxel et al. (2001); cited from earlier work
[2] = system: estradiol; experiment: Estradiol level in blood samples during oral administration to a human subject; assay type: in vivo; conditions: for Estradiol: blood, one human subject, Day 0 before dosing 36
Description: (§1) To evaluate the effect of administration of glutaurine on estradiol and thyroid hormone levels in a human subject, approximately 800 micrograms (mcg) per day of glutaurine were administered orally to the subject over a period of about one month. At Day 0 prior to administration of the glutaurine and at Day 4 and Day 28 during administration of the glutaurine blood samples were collected and analyzed for the levels of estradiol, thyroid stimulating hormone (TSH), and the thyroid hormones triiodothyronine (T3) and thyroxine (T4). Total amounts of T3 and T4 were measured in the blood samples.

[3] = system: thyroid stimulating hormone (TSH); experiment: TSH level in blood samples during oral administration to a human subject; assay type: in vivo; conditions: for TSH: blood, one human subject, Day 0 before dosing 3.01
Description: as §1

[4] = system: thyroxine (T4); experiment: Total T4 level in blood samples during oral administration to a human subject; assay type: in vivo; conditions: for T4: total T4, blood, one human subject, Day 0 before dosing 8.3
Description: as §1

[5] = system: triiodothyronine (T3); experiment: Total T3 level in blood samples during oral administration to a human subject; assay type: in vivo; conditions: for T3: total T3, blood, one human subject, Day 0 before dosing 91
Description: as §1

[6] = system: human subject; experiment: Subject-reported effects during administration; assay type: in vivo; conditions: oral approx. 800 mcg/day
Description: as §1
The subject also reported fat loss as a result of the glutaurine administration.

[7] = Day 4 of oral approx. 800 mcg/day
[8] = Day 28 of oral approx. 800 mcg/day
[9] = oral approx. 800 mcg/day for about one month, human subject
[10] = indicative of rising energy expenditure and metabolism

Structure (SMILES)	change in estradiol [1]	change in total testosterone [1]	Estradiol [2, 7]	Estradiol [2, 8]	change in estradiol levels [2, 9]	TSH [3, 7]	TSH [3, 8]	change in TSH levels [3, 9]	change in T4 levels [4, 9]	T4 [4, 7]	T4 [4, 8]	change in T3 levels [5, 9]	T3 [5, 7]	T3 [5, 8]	body fat (subject-reported) [6]	body temperature (subject-reported) [6, 10]	sweating (subject-reported) [6, 10]
CC(C)(C#N)c1cc(Cn2cncn2)cc(C(C)(C)C#N)c1 [anastrozole]	significant decrease	increase															
NC(CCC(=O)NCCS(=O)(=O)O)C(=O)O (centres unmarked) [glutaurine]			32 pg/mL	30 pg/mL	marked decrease	3.28 mIU/L	2.74 mIU/L	no significant change	slightly reduced	7.9 µg/dL	7.3 µg/dL	consistent increase	96 ng/dL	109 ng/dL	fat loss	increased body temperature	increased sweating

Reference: patent US10471032B1, “Substituted glutaurine compounds and substituted glutaurine derivatives” (ThermoLife International, LLC, priority 2013, dated 2019)
